Tests used:
Assay in all cases: KinaseProfiler off-target kinase profiling
Format in all cases: biochemical
Conditions in all cases: 10 μM, ATP near Km
ARK5 = ARK5 (Homo sapiens (Human), UniProt O60285)
Experimental: (§1) Representative compounds (Examples 12, 32, 26 and 2) of the invention were tested for off-target kinase activity at a concentration of 10 μM by Millipore, Inc. in their KinaseProfiler™ service against all the kinases available in their full kinase panel. Compounds were run in duplicate at a concentration of ATP near the Km for each individual kinase according to Millipore's specifications. The results are shown in Table B. Data are reported as percent of control (POC) and are the average of the two replicates.

AURKA = AURKA (Homo sapiens (Human), UniProt O14965)
AURKA, sequence (O14965 whole entry): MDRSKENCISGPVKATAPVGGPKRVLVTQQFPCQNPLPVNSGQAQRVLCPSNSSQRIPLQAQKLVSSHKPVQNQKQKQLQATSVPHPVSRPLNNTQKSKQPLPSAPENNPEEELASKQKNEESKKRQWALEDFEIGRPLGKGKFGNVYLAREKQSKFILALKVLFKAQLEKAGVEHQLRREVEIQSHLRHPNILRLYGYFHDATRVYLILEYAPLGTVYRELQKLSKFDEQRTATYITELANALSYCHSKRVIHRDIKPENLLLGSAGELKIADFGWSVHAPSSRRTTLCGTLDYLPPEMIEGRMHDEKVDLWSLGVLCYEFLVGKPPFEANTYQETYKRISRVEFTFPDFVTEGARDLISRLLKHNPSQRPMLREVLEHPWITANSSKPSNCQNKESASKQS
Experimental: as §1

CAMK2d = CAMK2d (Homo sapiens (Human), UniProt Q13557)
Experimental: as §1

CDK1/cyclinB = CDK1/cyclinB (Homo sapiens (Human), UniProt P06493)
Experimental: as §1

DYRK2 = DYRK2 (Homo sapiens (Human), UniProt Q92630)
Experimental: as §1

EphA7 = EphA7 (Homo sapiens (Human), UniProt Q15375)
Experimental: as §1

EphA8 = EphA8 (Homo sapiens (Human), UniProt P29322)
Experimental: as §1

GSK3alpha = GSK3alpha (Homo sapiens (Human), UniProt P49840)
Experimental: as §1

GSK3beta = GSK3beta (Homo sapiens (Human), UniProt P49841)
Experimental: as §1

HIPK1 = HIPK1 (Homo sapiens (Human), UniProt Q86Z02)
Experimental: as §1

Haspin = Haspin (Homo sapiens (Human), UniProt Q8TF76)
Experimental: as §1

Hck = Hck (Homo sapiens (Human), UniProt P08631)
Experimental: as §1

IKKalpha = IKKalpha (Homo sapiens (Human), UniProt O15111)
Experimental: as §1

ITK = ITK (Homo sapiens (Human), UniProt Q08881)
ITK, sequence (Q08881 whole entry): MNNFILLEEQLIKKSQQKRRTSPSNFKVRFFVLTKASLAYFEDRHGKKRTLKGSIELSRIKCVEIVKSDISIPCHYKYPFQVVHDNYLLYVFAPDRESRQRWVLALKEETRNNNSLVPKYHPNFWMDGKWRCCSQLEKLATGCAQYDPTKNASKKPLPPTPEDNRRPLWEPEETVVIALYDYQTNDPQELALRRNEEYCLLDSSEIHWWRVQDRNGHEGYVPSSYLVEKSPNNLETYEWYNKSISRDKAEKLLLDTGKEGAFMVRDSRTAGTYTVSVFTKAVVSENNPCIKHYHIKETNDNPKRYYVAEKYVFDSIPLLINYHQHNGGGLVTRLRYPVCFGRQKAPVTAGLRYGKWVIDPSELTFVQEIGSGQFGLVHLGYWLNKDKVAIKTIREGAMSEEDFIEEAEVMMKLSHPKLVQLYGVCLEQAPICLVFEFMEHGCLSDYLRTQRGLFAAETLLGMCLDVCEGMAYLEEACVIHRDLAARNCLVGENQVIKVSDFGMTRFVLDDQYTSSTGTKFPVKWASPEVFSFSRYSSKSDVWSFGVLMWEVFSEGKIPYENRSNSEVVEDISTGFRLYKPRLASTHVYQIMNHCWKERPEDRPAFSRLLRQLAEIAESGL
Experimental: as §1

KIT = KIT (Homo sapiens (Human), UniProt P10721)
Experimental: as §1

LKB1 = LKB1 (Homo sapiens (Human), UniProt Q15831)
Experimental: as §1

MAP3K5 = MAP3K5 (Homo sapiens (Human), UniProt Q99683)
Experimental: as §1

MARK1 = MARK1 (Homo sapiens (Human), UniProt Q9P0L2)
Experimental: as §1

MINK = MINK (Homo sapiens (Human), UniProt Q8N4C8)
Experimental: as §1

MST2 = MST2 (Homo sapiens (Human), UniProt Q13188)
MST2, sequence (Q13188 whole entry): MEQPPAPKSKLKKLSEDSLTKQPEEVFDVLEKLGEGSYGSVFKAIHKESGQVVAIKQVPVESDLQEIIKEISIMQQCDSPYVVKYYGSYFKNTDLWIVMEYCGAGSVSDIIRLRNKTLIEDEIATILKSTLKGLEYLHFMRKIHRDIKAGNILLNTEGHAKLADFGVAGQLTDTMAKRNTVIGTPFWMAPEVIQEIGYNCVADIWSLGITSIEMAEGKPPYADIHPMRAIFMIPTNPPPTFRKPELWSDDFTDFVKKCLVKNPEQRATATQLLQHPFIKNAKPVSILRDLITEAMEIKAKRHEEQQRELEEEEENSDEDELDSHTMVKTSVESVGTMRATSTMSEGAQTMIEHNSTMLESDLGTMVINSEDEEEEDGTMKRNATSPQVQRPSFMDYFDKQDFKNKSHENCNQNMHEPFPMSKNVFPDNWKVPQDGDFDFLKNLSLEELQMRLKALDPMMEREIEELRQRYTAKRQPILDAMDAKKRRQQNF
Experimental: as §1

PAK4 = PAK4 (Homo sapiens (Human), UniProt O96013)
Experimental: as §1

PKCbetaII = PKCbetaII (Homo sapiens (Human), UniProt P05771)
PKCbetaII, sequence (P05771 other isoform, or with tags, fused parts or gaps): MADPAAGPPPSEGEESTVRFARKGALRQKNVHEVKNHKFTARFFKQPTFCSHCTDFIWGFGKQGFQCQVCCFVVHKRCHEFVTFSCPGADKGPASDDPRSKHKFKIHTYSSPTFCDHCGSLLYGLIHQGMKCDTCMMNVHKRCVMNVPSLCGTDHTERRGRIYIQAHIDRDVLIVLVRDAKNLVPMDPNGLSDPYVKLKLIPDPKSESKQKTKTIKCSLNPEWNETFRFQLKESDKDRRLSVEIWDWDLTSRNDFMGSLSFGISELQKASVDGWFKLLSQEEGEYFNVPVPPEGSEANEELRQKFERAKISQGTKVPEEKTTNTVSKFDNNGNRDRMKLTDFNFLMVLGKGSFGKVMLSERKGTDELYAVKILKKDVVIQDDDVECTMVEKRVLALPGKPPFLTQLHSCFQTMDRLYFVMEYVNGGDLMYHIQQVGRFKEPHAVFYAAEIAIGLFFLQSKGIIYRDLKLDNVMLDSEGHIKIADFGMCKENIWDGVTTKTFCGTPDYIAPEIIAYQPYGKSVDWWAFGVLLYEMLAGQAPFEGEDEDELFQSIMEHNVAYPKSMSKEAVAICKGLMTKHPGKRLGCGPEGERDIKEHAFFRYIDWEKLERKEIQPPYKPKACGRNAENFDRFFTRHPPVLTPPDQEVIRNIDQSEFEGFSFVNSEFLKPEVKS
Experimental: as §1

PKCiota = PKCiota (Homo sapiens (Human), UniProt P41743)
Experimental: as §1

PKCtheta = PKCtheta (Homo sapiens (Human), UniProt Q04759)
Experimental: as §1

PKCzeta = PKCzeta (Homo sapiens (Human), UniProt Q05513)
PKCzeta, sequence (Q05513 whole entry): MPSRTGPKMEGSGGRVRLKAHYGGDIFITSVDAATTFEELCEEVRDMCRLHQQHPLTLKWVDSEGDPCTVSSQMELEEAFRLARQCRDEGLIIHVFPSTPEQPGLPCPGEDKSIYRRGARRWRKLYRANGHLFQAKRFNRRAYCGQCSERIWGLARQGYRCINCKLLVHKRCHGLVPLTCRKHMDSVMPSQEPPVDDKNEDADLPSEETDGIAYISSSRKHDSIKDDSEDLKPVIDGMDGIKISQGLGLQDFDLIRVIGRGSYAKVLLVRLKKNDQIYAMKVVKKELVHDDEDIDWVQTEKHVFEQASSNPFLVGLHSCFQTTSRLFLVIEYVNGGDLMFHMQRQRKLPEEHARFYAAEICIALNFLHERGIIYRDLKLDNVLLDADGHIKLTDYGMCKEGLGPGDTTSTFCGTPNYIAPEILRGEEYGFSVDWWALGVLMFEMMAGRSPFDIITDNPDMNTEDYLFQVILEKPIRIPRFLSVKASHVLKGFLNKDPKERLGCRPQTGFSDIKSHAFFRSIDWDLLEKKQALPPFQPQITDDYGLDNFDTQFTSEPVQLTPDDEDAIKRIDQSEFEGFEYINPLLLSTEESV
Experimental: as §1

PRK2 = PRK2 (Homo sapiens (Human), UniProt Q16513)
PRK2, sequence (Q16513 whole entry): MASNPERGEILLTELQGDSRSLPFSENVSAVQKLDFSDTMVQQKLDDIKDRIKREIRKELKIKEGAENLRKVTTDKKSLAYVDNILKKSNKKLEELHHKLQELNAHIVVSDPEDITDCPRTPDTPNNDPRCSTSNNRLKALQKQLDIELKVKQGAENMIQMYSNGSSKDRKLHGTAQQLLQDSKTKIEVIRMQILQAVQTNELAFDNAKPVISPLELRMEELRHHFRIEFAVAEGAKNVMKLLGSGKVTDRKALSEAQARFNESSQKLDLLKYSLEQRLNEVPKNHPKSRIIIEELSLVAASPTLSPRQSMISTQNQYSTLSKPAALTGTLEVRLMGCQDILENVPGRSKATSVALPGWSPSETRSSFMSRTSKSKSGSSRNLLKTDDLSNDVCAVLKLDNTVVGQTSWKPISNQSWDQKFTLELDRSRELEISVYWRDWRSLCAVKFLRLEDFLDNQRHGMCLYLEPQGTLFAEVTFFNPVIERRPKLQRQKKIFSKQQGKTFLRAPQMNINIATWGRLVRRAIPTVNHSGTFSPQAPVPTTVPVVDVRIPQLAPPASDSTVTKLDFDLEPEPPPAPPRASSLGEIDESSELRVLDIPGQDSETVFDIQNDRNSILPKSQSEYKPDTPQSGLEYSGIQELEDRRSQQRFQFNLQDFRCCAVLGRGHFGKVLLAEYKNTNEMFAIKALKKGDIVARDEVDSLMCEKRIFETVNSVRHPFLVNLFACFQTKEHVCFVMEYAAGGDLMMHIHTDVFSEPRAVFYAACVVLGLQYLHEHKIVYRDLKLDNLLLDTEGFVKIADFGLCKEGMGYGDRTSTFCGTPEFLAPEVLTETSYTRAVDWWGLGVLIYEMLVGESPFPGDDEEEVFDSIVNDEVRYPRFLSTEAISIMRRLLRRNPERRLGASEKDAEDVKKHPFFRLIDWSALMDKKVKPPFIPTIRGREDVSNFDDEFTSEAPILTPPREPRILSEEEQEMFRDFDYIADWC
Experimental: as §1

PTK6 = PTK6 (Homo sapiens (Human), UniProt Q13882)
PTK6, sequence (Q13882 whole entry): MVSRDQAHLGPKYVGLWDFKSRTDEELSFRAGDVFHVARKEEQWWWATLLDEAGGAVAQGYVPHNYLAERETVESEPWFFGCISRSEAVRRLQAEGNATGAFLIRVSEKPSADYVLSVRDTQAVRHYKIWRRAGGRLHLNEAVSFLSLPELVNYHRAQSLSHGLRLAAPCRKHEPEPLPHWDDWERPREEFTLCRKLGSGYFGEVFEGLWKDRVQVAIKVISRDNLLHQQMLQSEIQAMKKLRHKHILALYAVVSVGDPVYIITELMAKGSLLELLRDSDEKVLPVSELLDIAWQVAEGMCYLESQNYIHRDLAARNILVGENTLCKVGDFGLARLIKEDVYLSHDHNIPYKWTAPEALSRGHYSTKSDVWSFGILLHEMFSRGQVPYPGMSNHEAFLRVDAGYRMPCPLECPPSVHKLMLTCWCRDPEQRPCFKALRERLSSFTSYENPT
Experimental: as §1

Plk1 = Plk1 (Homo sapiens (Human), UniProt P53350)
Experimental: as §1

PrKX = PrKX (Homo sapiens (Human), UniProt P51817)
Experimental: as §1

Rse = Rse (Homo sapiens (Human), UniProt Q06418)
Experimental: as §1

Rsk2 = Rsk2 (Homo sapiens (Human), UniProt P51812)
Experimental: as §1

Rsk3 = Rsk3 (Homo sapiens (Human), UniProt Q15349)
Experimental: as §1

Rsk4 = Rsk4 (Homo sapiens (Human), UniProt Q9UK32)
Rsk4, sequence (Q9UK32 whole entry): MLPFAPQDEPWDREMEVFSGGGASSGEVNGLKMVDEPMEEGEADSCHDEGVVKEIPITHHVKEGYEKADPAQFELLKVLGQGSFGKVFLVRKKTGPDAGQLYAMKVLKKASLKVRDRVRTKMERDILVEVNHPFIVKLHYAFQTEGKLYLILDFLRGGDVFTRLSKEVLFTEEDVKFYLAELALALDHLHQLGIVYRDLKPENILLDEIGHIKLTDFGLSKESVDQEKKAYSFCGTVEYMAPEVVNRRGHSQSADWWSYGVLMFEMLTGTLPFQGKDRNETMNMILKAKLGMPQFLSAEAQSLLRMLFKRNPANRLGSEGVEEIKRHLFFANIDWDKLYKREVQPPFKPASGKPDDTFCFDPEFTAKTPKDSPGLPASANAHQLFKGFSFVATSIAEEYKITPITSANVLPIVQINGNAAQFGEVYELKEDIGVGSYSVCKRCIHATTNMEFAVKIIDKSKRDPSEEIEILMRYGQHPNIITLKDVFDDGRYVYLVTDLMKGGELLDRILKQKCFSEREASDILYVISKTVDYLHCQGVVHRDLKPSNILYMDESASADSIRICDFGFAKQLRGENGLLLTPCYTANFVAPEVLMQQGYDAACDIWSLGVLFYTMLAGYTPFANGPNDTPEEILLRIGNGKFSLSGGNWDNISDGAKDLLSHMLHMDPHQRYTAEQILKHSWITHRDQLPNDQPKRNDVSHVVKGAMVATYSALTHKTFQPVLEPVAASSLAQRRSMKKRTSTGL
Experimental: as §1

SGK3 = SGK3 (Homo sapiens (Human), UniProt Q96BR1)
Experimental: as §1

TAO1 = TAO1 (Homo sapiens (Human), UniProt Q7L7X3)
Experimental: as §1

TrkB = TrkB (Homo sapiens (Human), UniProt Q16620)
Experimental: as §1

WNK3 = WNK3 (Homo sapiens (Human), UniProt Q9BYP7)
Experimental: as §1

ZAP-70 = ZAP-70 (Homo sapiens (Human), UniProt P43403)
Experimental: as §1

c-RAF = c-RAF (Homo sapiens (Human), UniProt P04049, Y340D/Y341D)
Experimental: as §1

SMILES | Avg. POC (ARK5) [POC] | Avg. POC (AURKA) [POC] | Avg. POC (CAMK2d) [POC] | Avg. POC (CDK1/cyclinB) [POC] | Avg. POC (DYRK2) [POC] | Avg. POC (EphA7) [POC] | Avg. POC (EphA8) [POC] | Avg. POC (GSK3alpha) [POC] | Avg. POC (GSK3beta) [POC] | Avg. POC (HIPK1) [POC] | Avg. POC (Haspin) [POC] | Avg. POC (Hck) [POC] | Avg. POC (IKKalpha) [POC] | Avg. POC (ITK) [POC] | Avg. POC (KIT) [POC] | Avg. POC (LKB1) [POC] | Avg. POC (MAP3K5) [POC] | Avg. POC (MARK1) [POC] | Avg. POC (MINK) [POC] | Avg. POC (MST2) [POC] | other results
Cc1c(-c2cnn(C)c2)nn(-c2ccccc2)c1NC(=O)N[C@H]1CCCc2ccccc21 [Example 2, (S)-1-(1′,4-dimethyl-1-phenyl-1H,1′H-3,4′-bipyrazol-5-yl)-3-(1,2,3,4-tetrahydronaphthalen-1-yl)urea] | 109.5 | 126 | 119 | 122.5 | 98 | 116 | 128.5 | 123.5 | 126 | 97 | 92.5 | 85.5 | 141.5 | 117.5 | 104 | 103.5 | 105 | 103 | 110.5 | 110.5 | Avg. POC (PAK4): 95 POC; Avg. POC (PKCbetaII): 95.5 POC; Avg. POC (PKCiota): 95.5 POC; Avg. POC (PKCtheta): 101 POC; Avg. POC (PKCzeta): 122.5 POC; Avg. POC (PRK2): 128 POC; Avg. POC (PTK6): 129 POC; Avg. POC (Plk1): 95 POC; Avg. POC (PrKX): 152 POC; Avg. POC (Rse): 109 POC; Avg. POC (Rsk2): 137 POC; Avg. POC (Rsk3): 106 POC; Avg. POC (Rsk4): 140 POC; Avg. POC (SGK3): 137.5 POC; Avg. POC (TAO1): 110.5 POC; Avg. POC (TrkB): −2 POC; Avg. POC (WNK3): 109.5 POC; Avg. POC (ZAP-70): 124 POC; Avg. POC (c-RAF): 103.5 POC
Cc1c(-c2cnn(C)c2)nn(-c2ccccc2)c1NC(=O)NC1CCOc2cc(F)ccc21 (stereo not drawn) [Example 12, 1-(1′,4-dimethyl-1-phenyl-1H,1′H-[3,4′-bipyrazol]-5-yl)-3-(7-fluorochroman-4-yl)urea] | 99.5 | 111 | 110.5 | 107.5 | 97.5 | 96.5 | 122.5 | 119.5 | 109.5 | 102.5 | 97 | 103.5 | 119.5 | 114.5 | 102.5 | 91 | 111 | 104 | 102 | 106.5 | Avg. POC (PAK4): 103 POC; Avg. POC (PKCbetaII): 100 POC; Avg. POC (PKCiota): 69.5 POC; Avg. POC (PKCtheta): 117.5 POC; Avg. POC (PKCzeta): 99.5 POC; Avg. POC (PRK2): 97.5 POC; Avg. POC (PTK6): 125.5 POC; Avg. POC (Plk1): 98.5 POC; Avg. POC (PrKX): 118.5 POC; Avg. POC (Rse): 106 POC; Avg. POC (Rsk2): 103 POC; Avg. POC (Rsk3): 90 POC; Avg. POC (Rsk4): 101 POC; Avg. POC (SGK3): 143.5 POC; Avg. POC (TAO1): 104 POC; Avg. POC (TrkB): 1 POC; Avg. POC (WNK3): 112.5 POC; Avg. POC (ZAP-70): 140 POC; Avg. POC (c-RAF): 96 POC
Cc1c(-c2ccc(=O)n(C)c2)nn(-c2ccccc2)c1NC(=O)NC1CN(CC(F)(F)F)Cc2ccccc21 (stereo not drawn) [Example 26, 1-(4-methyl-3-(1-methyl-6-oxo-1,6-dihydropyridin-3-yl)-1-phenyl-1H-pyrazol-5-yl)-3-(2-(2,2,2-trifluoroethyl)-1,2,3,4-tetrahydroisoquinolin-4-yl)urea] | 100.5 | 107.5 | 99.5 | 103 | 103 | 108 | 118.5 | 115.5 | 124.5 | 111 | 92 | 91.5 | 112.5 | 122 | 94 | 95 | 116.5 | 98.5 | 126.5 | 111 | Avg. POC (PAK4): 100.5 POC; Avg. POC (PKCbetaII): 99 POC; Avg. POC (PKCiota): 85.5 POC; Avg. POC (PKCtheta): 109 POC; Avg. POC (PKCzeta): 108.5 POC; Avg. POC (PRK2): 110.5 POC; Avg. POC (PTK6): 121 POC; Avg. POC (Plk1): 108 POC; Avg. POC (PrKX): 109 POC; Avg. POC (Rse): 109.5 POC; Avg. POC (Rsk2): 105.5 POC; Avg. POC (Rsk3): 76.5 POC; Avg. POC (Rsk4): 99.5 POC; Avg. POC (SGK3): 104 POC; Avg. POC (TAO1): 105.5 POC; Avg. POC (TrkB): 1.5 POC; Avg. POC (WNK3): 103.5 POC; Avg. POC (ZAP-70): 120.5 POC; Avg. POC (c-RAF): 106.5 POC

Reference: patent publication US10351575B2, “Bicyclic urea, thiourea, guanidine and cyanoguanidine compounds useful for the treatment of pain” (Array BioPharma Inc., priority 2012, dated 2019)
